Experimental data published in patent US4883808A, “Condensation products of cyclic diketones and ascorbic acid as immunomodulatory agents” (American Biotechnology Company, priority 1988, dated 1989).

Tests used:
[1] = system: T- and B-lymphocytes isolated from mouse spleens; assay: lymphocyte blastogenesis assay (mouse spleen lymphocytes, C-14 methyl thymidine uptake); format: cell-based; set-up: LPS 5.0 (lymphocyte blastogenesis) / RPMI (lymphocyte blastogenesis): unit not given here; conditions: for LPS 5.0 (lymphocyte blastogenesis) / % CHANGE (LPS): LPS 5.0 MG/KG; for % CHANGE (LPS) / % CHANGE (PHA): vs 0 mg/kg; for PHA 10.0 (lymphocyte blastogenesis) / % CHANGE (PHA): PHA 10.0 UG/KG; for RPMI (lymphocyte blastogenesis): media, no mitogen
From the text: One of these tests is the lymphocyte blastogenesis assay which measures the ability of the compound under test to affect DNA synthesis and mitosis of T- and B- lymphocytes isolated from mouse spleens.
Mitogens are substances which stimulate DNA synthesis and mitosis. The mitogens used in these studies were phytohemaglutinin (PHA) which is isolated from the red kidney bean and a lipopolysacharide isolated from Salmonella tythimurium (LPS).
The lymphocyte blastogenesis test is a method to assess the ability of immunocompetent T- or B-cells to respond to mitogens or a specific antigen. It may be performed on lymphocytes obtained from mice treated with immunostimulators in vivo or the entire assay can be performed in vitro. The assay as described below uses minimal doses of polyclonal mitogens to induce blastogenesis (proliferation measured by DNA synthesis), in order to be able to assess the phenomena of amplification.
The lymphocyte blastogenesis test is carried out as follows:
1. Sacrifice two mice/experimental group by cervical dislocation.
2. Immerse mice in a mild disinfectant solution (Povadyne).
3. Remove spleens and place in a sterile 6 well plate containing 5 ml/well of RPMI-1640.
4. Make a single cell suspension by mincing spleens with a sterile toothed forcep.
5. Place cell suspension in a sterile centrifuge tube and allow large clumps to settle for 10 minutes.
6. Remove single cell suspension by pipetting supernatant into another sterile centrifuge tube.
7. Centrifuge cell suspension for 10 mins. at 1100 RPM in GLC-2B.
8. Aseptically remove supernatant and discard.
9. Resuspend cell button in 5 mls of RPMI-1640, and centrifuge. Wash cells in this manner two more times.
10. Resuspend cells in 5 mls of RPMI-1640 containing 10-15% Human AB heat-inactivated (Pel-Freeze, Rogers, AR or BioBee, Boston, MA).
11. Perform viable cell count using 0.25% trypan blue exclusion dye made in physiological isotonic saline. Non-viable cells stain blue.
12. Adjust viable cell concentration to […] in RPMI-1640 containing human AB sera.
13. Aliquot in sextuplicate wells of a 96 well sterile round bottom tissue culture plate with 0.1 ml/well of the various cell suspensions to be tested.
14. Add to above replicate sextuplicate cells selected quantities of mitogen.
15. Include in the experiment a control plate which contains the same cell groups as above, but receive a 0.1 ml of media instead of mitogen.
16. Humidify plate by filling outside wells of plate with media.
17. Incubate plates at […] with 5% CO-2 for 48 hours.
18. After 48 hours all wells receive 0.025 mls of a 0.4 microcurie/ml solution of C-14 methyl thymidine and incubate at 37 C, 5% CO-2 for 18 hours.
19. The cells are harvested using a Brandel M-12 Cell Harvestor (Brandel, Rockfille, MD) onto filter paper discs using phosphate buffered saline at physiological osmolarity. (285-320 mos).
20. The filter paper disks are placed into Packard mini-scintillation vials and allowed to dry for 18 hours.
21. Once dried, the vials are filled with 2 mls of a scintillation cocktail containing 4 liters of scintillation grade toluene, 16.0 g of 2,5-diphenyloxazole (PPO) and 0.4 g of 1,4-Bis (2-(5-Phenyloxazoly) benzene (POPOP).
22. The vials are counted in a LKB 1212 Rackbeta (LKB Instruments, Gaithersburg, MD) Liquid scintillation counter for two minutes/vial.

adenovirus type 2 = assay: antiviral test of Sidewell and Huffman, adenovirus type 2 in HEp-2 cells; format: cell-based; conditions: HEp-2 target cell
Protocol: The virus rating (VR) of Compound A of this invention when tested in accordance with the method of Sidewell and Huffman (Appl. Microbiol. 22:795-801, 1971) against adenovirus type 2 utilizing HEp-2 as the target cell was greater than 0.2. […] The minimum toxic concentration (MTC) was greater than 320 μg/ml.

feline leukemia virus = assay: antiviral test of Sidewell and Huffman, feline leukemia virus in 81C cells; format: cell-based, feline leukemia virus (81C feline kidney cell); conditions: 81C cell line
Protocol: The virus rating (VR) of Compound A of this invention when tested in accordance with the method of […] and Huffman (Appl. Microbiol. 22:795-801, 1971) against adenovirus type 2 utilizing HEp-2 as the target cell was greater than 0.2. […] The minimum toxic concentration (MTC) was greater than 320 μg/ml. The same compound was also tested against feline leukemia virus by the […] and Huffman procedure using the […] cell line as the target. The […] cell is a feline kidney cell transformed with a murine leukemia virus (ras gene +) with the following results. The therapeutic index of the compound which is a measure of the compounds ability to protect the cell against the virus without adversely affecting cell growth was 22.

<3,4'>-hemiketal-<3,6>-ketal of 2-(1',4'-diketo-3'-cyclohexyl)-2-hydroxy-3-keto-4-dihydroxyethylbutyrolactone [Compound B]
LPS 5.0 (lymphocyte blastogenesis) ([1]; 12.5 mg/kg): 7195 ± 90
% CHANGE (LPS) ([1]; 12.5 mg/kg): +2.2%
PHA 10.0 (lymphocyte blastogenesis) ([1]; 12.5 mg/kg): 7126 ± 1104
% CHANGE (PHA) ([1]; 12.5 mg/kg): -3.8%
RPMI (lymphocyte blastogenesis) ([1]; 12.5 mg/kg): 605 ± 117
LPS 5.0 (lymphocyte blastogenesis) ([1]; 25 mg/kg): 8580 ± 507
% CHANGE (LPS) ([1]; 25 mg/kg): +21.9%
PHA 10.0 (lymphocyte blastogenesis) ([1]; 25 mg/kg): 7563 ± 2053
% CHANGE (PHA) ([1]; 25 mg/kg): +2.1%
RPMI (lymphocyte blastogenesis) ([1]; 25 mg/kg): 1392 ± 247
LPS 5.0 (lymphocyte blastogenesis) ([1]; 50 mg/kg): 6823 ± 1305
PHA 10.0 (lymphocyte blastogenesis) ([1]; 50 mg/kg): 10218 ± 2630
% CHANGE (PHA) ([1]; 50 mg/kg): +37.9%
RPMI (lymphocyte blastogenesis) ([1]; 50 mg/kg): 1041 ± 687
LPS 5.0 (lymphocyte blastogenesis) ([1]; 100 mg/kg): 8423 ± 351
% CHANGE (LPS) ([1]; 100 mg/kg): +19.6%
PHA 10.0 (lymphocyte blastogenesis) ([1]; 100 mg/kg): 9258 ± 1391
% CHANGE (PHA) ([1]; 100 mg/kg): +24.9%
RPMI (lymphocyte blastogenesis) ([1]; 100 mg/kg): 705 ± 314
LPS 5.0 (lymphocyte blastogenesis) ([1]; 200 mg/kg): 8025 ± 1670
% CHANGE (LPS) ([1]; 200 mg/kg): +14%
PHA 10.0 (lymphocyte blastogenesis) ([1]; 200 mg/kg): 8111 ± 896
% CHANGE (PHA) ([1]; 200 mg/kg): +9.4%
RPMI (lymphocyte blastogenesis) ([1]; 200 mg/kg): 660 ± 354

<3,3'>-hemiketal-<3,6>-ketal of 2-(1',3'-diketo-4'-cyclopentyl)-2-hydroxy-3-keto-4-dihydroxyethylbutyrolactone [Compound A]
minimum toxic concentration (MTC) (adenovirus type 2): greater than 320 μg/ml
ID50 (concentration that causes 50% reduction in virus replication) (adenovirus type 2; adenovirus type 2): 505.19 µg/mL
virus rating (VR) (adenovirus type 2; adenovirus type 2): greater than 0.2
MTC (minimum toxic concentration) (feline leukemia virus): 100
ID50 (concentration in μg./ml that causes 50% reduction in virus replication) (feline leukemia virus; feline leukemia virus): 4.5 µg/mL
VR (virus rating) (feline leukemia virus; feline leukemia virus, control 0.98): 1.1
